For orientation: IC50 means the midpoint of a concentration-inhibition curve.

Experiment [1] relates to kinases present in the cellular extracts (PBMC). The experiment in a line: Calcineurin kinetic experiments in PBMC cytosolic proteins in the presence or absence of kinase inhibitors (LC-MS/MS of DP-RII peptide). Particulars: 5 μg PBMC cytosolic proteins from healthy volunteers, FIG. 1; for production of DP-RII peptide vs control: 37° C., up to 120 min, 500 nM okadaic acid, ANOVA test. In kind it is biochemical, human. Here is the method: FIG. 1: Calcineurin kinetic experiments were performed in the presence or absence of two different kinase inhibitors. The production of DP-RII peptide was quantified using LC-MS/MS analysis.
PBMCs obtained from either healthy volunteers or transplant patients were resuspended in a buffer containing 50 mM Tris, pH=7.0, 0.1 mM EGTA, 0.05 mM dithiothreitol, 0.1% tween 20, 0.3 mg/mL albumin, 1 mM MnCl2, 1 mM CaCl2 and protease inhibitors. These cellular extracts were sonicated on ice, and centrifuged for 30 minutes at 10.000 g at 4° C. The supernatants corresponding primarily to the cytosolic fractions were recovered and their protein content was determined. These cellular extracts can be stored at −80° C. for later measurement of CN activity.
One to 5 μg of proteins obtained from PBMC, prepared as described above, were used for measuring calcineurin activity in a reaction mixture containing 500 nM okadaic acid, 1 mg/L internal standard, 20 μM H89, 8 mg/L phosphorylated RII peptide and 0.03 units calmodulin in 15 μL 50 mM Tris-HCl, pH=7.0. Enzymatic reaction was carried out at 37° C. for 30 min and then, the reaction tubes were cooled on ice and the enzymatic reaction was stopped by addition of 15 μL of a solution of 5% trichloroacetic acid. After centrifugation for 5 minutes at 12.000 g at 4° C., supernatants were transferred to […] into 1.5 mL glass autoinjector vials and kept at 4° C. in autosampler before injection. […]
The inventors assessed the kinetics of calcineurin in the presence or not of 2 different kinase inhibitors: H89, an unspecific inhibitor and Rp-adenosine 3′,5′-cyclic monophosphorothioate, a specific inhibitor of PKA.
A first set of experiments was performed using 5 μg of PBMC cytosolic proteins issued from healthy volunteers. […] The enzymatic reactions were stopped at the indicated time points (up to 120 min) and peptide amounts were quantified by LC-MS/MS.

The target in experiment [2] is protein phosphatase 2B (PP-2B). As to conditions: cited from earlier work.
Experiment [3] concerns the target protein phosphatase 1 (PP-1). Particulars: cited from earlier work.
For experiment [4], the target named is protein phosphatase 2A (PP-2A). As to conditions: cited from earlier work.

Turning to `O=S(=O)(NCCNC/C=C/c1ccc(Br)cc1)c1cccc2cnccc12` [H89], the “production of DP-RII peptide vs control” value in experiment [1] was “significantly higher”. In experiment [1] (p=0.0163), the “inhibition obtained vs that obtained with the PKA specific inhibitor” value is “significantly higher”.
Regarding `C=C1[C@@H](O)[C@@H]2O[C@]3(CC[C@H](/C=C/[C@@H](C)[C@@H]4CC(C)=C[C@@]5(O[C@H](C[C@@](C)(O)C(=O)O)CC[C@H]5O)O4)O3)CC[C@H]2O[C@@H]1[C@@H](O)C[C@H](C)[C@H]1O[C@@]2(CCCCO2)CC[C@H]1C` [Okadaic acid, 9,10-Deepithio-9,10-didehydroacanthifolicin], the IC50 in experiment [2] is over 5000 nM; in experiment [3], 20 to 100 nM; in experiment [4] it was 0.1 to 1 nM.
Take `Nc1ncnc2c1ncn2[C@@H]1O[C@@H]2COP(O)(=S)O[C@H]2[C@H]1O` (stereo partly drawn) [PKA specific inhibitor, Rp-adenosine 3′,5′-cyclic monophosphorothioate]: in experiment [1], the “production of DP-RII peptide vs control” value is “significantly higher”.

Source of the values: patent publication US9290792B2, “Method for measuring calcineurin activity” (UNIVERSITE PARIS DESCARTES, priority 2012, dated 2016).
